The structures appear in SMILES notation.

Data on one molecule can be found in patent US12582638B2, “Pharmaceutical composition for treating cancer, containing mTOR-signaling inhibitor as active ingredient” (KOREA ADVANCED INSTITUTE OF SCIENCE AND TECHNOLOGY, priority 2020, dated 2026).

One assay concerns MC38 colorectal cancer. The assay can be described thus: Mouse homograft tumor model, MC38 colorectal cancer. As to conditions: MC38 in C57B6/N mice. It counts as in vivo. As for the experimental part: (§1) For mouse homograft tumor model, experiments were conducted using female C57B6/N mice (wild-type, 6 weeks old) with MC38 colorectal cancer and B16F10 melanoma cell lines. MC38 colorectal cancer and B16F10 melanoma cell lines were each subcutaneously injected at a dose of 2×10^5 cells. Lomitapide used in the two models was formulated with 45% saline, 40% PEG300, 5% Tween-80, and 10% DMSO.
(§2) From 10 days after the DMC38 colorectal cancer cells injection, lomitapide was intraperitoneally injected five times at a dose of 20 mg/kg, and anti-PD-1 mAb (clone RMP1-14, BioXCell, West Lebanon, NH, USA) or rat IgG2a iso-type control (clone 2A3, BioXCell, BE0089) in PBS was administered at a dose of 10 mg/kg at days 1, 4, 7, and 10 (FIGS. 18a and 18b).

Assay [1] has as its system immunocytes (CD4+, CD4+/CD44+, CD8+, CD8+/IFNη, Foxp3, NK, and NK/IFNγ). The assay can be described thus: Immunocyte analysis in MC38 homograft model. As to conditions: lomitapide alone. It counts as in vivo, mouse. As for the experimental part:
as §1, §2
In addition, MC38 colorectal cancer cells were analyzed for immunocytes (CD4+, CD4+/CD44+, CD8+, CD8+/IFNη, Foxp3, NK, and NK/IFNγ).

Another assay relates to p-S6K, p-S6, LC3. The assay can be described thus: Cell signaling assay, western blot, SNU2. It counts as cell-based, human. The note with it: 0, 5, and 10 μM, FIG. 7g. As for the experimental part:
Cells treated with various concentration (0, 5, and 10 μM) of lomitapide were lysed with RIPA buffer containing a protease-inhibitor cocktail. The whole-cell lysate was incubated on ice for 30 minutes. After centrifugation at 4° C. and 13,300×g for 15 minutes, the supernatant was collected. For use as controls, cells were treated with 1 μM of torin, known as an mTOR inhibitor.
For western blot analysis, the supernatant was loaded onto 10% SDS-PAGE gel. The separated proteins were blotted onto a PVDF membrane. Then, the blots were incubated with antibodies at 4° C. for 12 hours as follows (Table 3).
(§3) Then, the blots were washed with TBST (a mixture of tris-buffered saline (TBS) and Tween 20), incubated with horseradish peroxidase-conjugated secondary antibody (Cell signaling) at 37° C. for 1 hour, and washed, followed by detecting enhanced chemiluminescence (ECL; Amersham).
(In general: In western blotting, separated proteins are transferred to a membrane and probed.)

The subject of another assay is HCT116 cells. Description: Cell colony forming assay (crystal violet). It counts as cell-based, human. As to conditions: 5 μM, 48 hours, vs wells treated without lomitapide. The protocol:
To examine relationship between lomitapide and cancer cell colony forming rate in HCT116 cells, cancer cell colony forming rates were measured after addition of limitapide to HCT116 cells cultured in wells.
HCT116 cells were seeded at a density of 10^5 cells/well into 12-well plates and incubated 37° C. for 24 hours. Subsequently, the cells were incubated with 0 and 5 μM lomitapide at 37° C. for 48 hours in a 5% CO2 atmosphere. Then, 500 μL of crystal violet was added to each well and incubated at room temperature for 10 minutes to stain the cells. From the staining data, the cells were analyzed for growth rate.

The subject of assay [2] is colorectal cancer patient-derived organoids. The assay can be described thus: Viability assay for organoids derived from colorectal cancer patients (imaging based). The note with it: two colorectal cancer patient-derived organoids; 72 hours; FIG. 20. It counts as cell-based, human. The protocol: Two-type colorectal cancer patient-derived organoids (organoid from males at 01-46 of age and organoid from females at 02-74 of age) were treated with lomitapide and assayed for viability as follows.
Organoids derived from colorectal cancer patients were cultured for 5-7 days on 48-well plates (SPL, cat 32048).
The organoids were separated from the plates by pipetting with 200 μL of Dulbecco's phosphate-buffered saline (DPBS; Welgene LB001-02) and transferred to new tubes.
For staining, the separated organoids and Hoechst (Thermo, #H-1399) were added at a ratio of 1:2,000 to a culture medium and incubated for 30 minutes at 37° C. in a 5% CO2 incubator. […]
Following the dispense, the number, state, and area of organoids were measured through DAPI signals with the aid of the high-contents imaging-based screening device Cytation 5 (Biotek).
Subsequently, organoid areas were monitored three times every 24 hours for 72 hours without changing the culture medium.
The effectiveness of the drug was calculated by applying the raw data derived from Cytation 5 to the following formulas. […]
Each organoid stained with Hoechst was measured for area (μm^2) by using Cytation 5, and areas of the all organoids in each well were summed.
The difference between the organoid area after 72 hours of drug treatment and the organoid area at the first 0 hour was calculated. […]

The test system of assay [3] is p-AKT, p-mTOR, p-S6K, p-S6. The assay can be described thus: Cell signaling assay, western blot, HCT116. It counts as cell-based, human. As to conditions: 0, 5, and 10 μM, dose-dependent, FIG. 6. As for the experimental part:
Cells treated with various concentrations (0, 5, and 10 μM) of lomitapide were lysed with RIPA buffer containing a protease-inhibitor cocktail. The whole-cell lysate was incubated on ice for 30 minutes. After centrifugation at 4° C. and 13,300×g for 15 minutes, the supernatant was collected. For use as controls, HCT116, SW480, HT29, MDA-MB-231, and MDA-MB-468 cells were treated with 1 μM of torin, known as an mTOR inhibitor.
For western blot analysis, the supernatant was loaded onto 10% SDS-PAGE gel. The separated proteins were blotted onto a PVDF membrane. Then, the blots were incubated with antibodies at 4° C. for 12 hours as follows (Table 2).
as §3

As for `O=C(NC1CCN(CCCCC2(C(=O)NCC(F)(F)F)c3ccccc3-c3ccccc32)CC1)c1ccccc1-c1ccc(C(F)(F)F)cc1` [lomitapide, N-(2,2,2-trifluoroethyl)-9-[4-[4-[[[4′-(trifluoromethyl)[1,1′-biphenyl]2-yl]carbonyl]amino]-1-piperidinyl]butyl]-9H-fluoren-9-carboxamide], in the assay on MC38 colorectal cancer (lomitapide 20 mg/kg i.p., anti-PD-1 mAb 10 mg/kg), the “tumor growth compared to the groups treated with the anti-PD-1 mAb” value is “greatly suppressed and reduced”. In the assay with MC38 colorectal cancer (lomitapide 20 mg/kg intraperitoneally five times), the “tumor growth compared to the control” value was “significantly suppressed and reduced tumor growth”. In addition, in assay [1], the “level of CD4+ immunocytes vs group treated with anti-PD-1 mAb alone” value is “superior”, the “level of CD4+/CD44+ immunocytes vs group treated with anti-PD-1 mAb alone” value was “similar”, the “level of CD8+ immunocytes vs group treated with anti-PD-1 mAb alone” value was “similar” and the “level of CD8+/IFNη immunocytes vs group treated with anti-PD-1 mAb alone” value was “similar”. Further, in assay [1], the “level of Foxp3 immunocytes vs group treated with anti-PD-1 mAb alone” value was “similar”, the “level of NK immunocytes vs group treated with anti-PD-1 mAb alone” value is given as “superior” and the “level of NK/IFNγ immunocytes vs group treated with anti-PD-1 mAb alone” value was “superior”. In the assay on p-S6K, p-S6, LC3, the “conversion from LC3I into LC3II” value is “increased induction of conversion from LC3I into LC3II”. For the same molecule, in the assay on p-S6K, p-S6, LC3 (dose-dependent), the “phosphorylation levels of target proteins (p-S6K, p-S6)” value was “remarkably decreased phosphorylation levels”. Besides, the “growth rate (colony forming)” value in the assay on HCT116 cells is on record as “remarkably lower in growth rate”. Also, the organoid viability entry in assay [2] is on record as “decreased in viability with the increase of the dose”. Further, in assay [3], the “phosphorylation of target proteins levels (p-AKT, p-mTOR, p-S6K, p-S6)” value is “decreased phosphorylation”.
